Literature values as cited in patent US20210198302A1, “OLIGOSACCHARIDE COMPOSITIONS AND METHODS OF USE THEREOF FOR REDUCING AMMONIA LEVELS” (Kaleido Biosciences, Inc., priority 2018, published 2021).

Test system: OHE patients
Conditions: administered in combination with lactulose

CO[C@H]1/C=C/O[C@@]2(C)Oc3c(C)c(O)c4c(O)c(c5c(nc6cc(C)ccn65)c4c3C2=O)NC(=O)/C(C)=C\C=C\[C@H](C)[C@H](O)[C@@H](C)[C@@H](O)[C@@H](C)[C@H](OC(C)=O)[C@@H]1C [rifaximin]
reduction of episodes of OHE: approximately 50%
